In article PMC3349818 (Journal of Medicinal Chemistry, 2012):

Legend:
[1] = In vitro liver microsome assay, mouse; assay type: in vitro ADME; details: predicted from mouse liver microsome stability
[2] = Pharmacokinetic study in female CD1 mice, single oral dose; details: CD1, mouse, in vivo, 200 mg/kg

| predicted in vivo mouse CL′inf [1] | AUC [2] | Structure (SMILES) |
| --- | --- | --- |
| 9.4 mL/min/kg | > 125 µM·h | CCOC(=O)c1c(-c2cccc(Cl)c2)[nH]c2cc(OC)c(F)cc2c1=O [20g, Ethyl 2-(3-chlorophenyl)-6-fluoro-7-methoxy-4-oxo-1,4-dihydroquinoline-3-carboxylate] |
|  | > 70 µM·h | CCOC(=O)c1c(-c2cccc(Br)c2)[nH]c2cc(OC)c(F)cc2c1=O [20h] |
